Data published in patent publication EP4809830A1, “USE OF 2'-FUCOSYLLACTOSE IN PROMOTING INTESTINAL DEVELOPMENT AND PREVENTING INTESTINAL DAMAGE” (Ausnutria Dairy (China) Co., Ltd., priority 2024, dated 2025).

Experiments:
Caco-2 cells [1] = experiment: Effects of 2'-FL on glycocalyx development in intestinal epithelial cells (qPCR of glycocalyx development genes); assay type: cell-based, human
Experimental: (§1) Caco-2 cell culture: human colon adenocarcinoma cells Caco-2 were cultured in MEM complete medium containing 20% high-quality fetal bovine serum, grown in 25 cm^2 cell culture flasks and incubated in a carbon dioxide incubator at 37 °C, 5% CO2, and 95% relative humidity. The culture medium was changed every one or two days. When the cells reach 80%-90% confluence, the cells were digested with 0.25% trypsin digestion solution and subcultured at a ratio of 1:3.
1.1 Experiments: Caco-2 cells were adjusted to a density of 1 × 10^5 cells/cm^2 and inoculated in 24-well plates. According to groups, 2'-FL at concentrations of 0.6 mg/mL, 1.2 mg/mL, and 2.4 mg/mL was added to MEM complete medium, respectively. After incubation for 3 days, MEM medium was served as a blank control. Total RNA was extracted from the cells and reverse transcribed. Transcriptional levels of genes related to glycocalyx development, including glypican 1 (gpc1), hyaluronic acid synthases (has1, has2 and has3), and exostosin glycosyltransferases (ext1 and ext2) in the Caco-2 cells were measured by qPCR. qPCR primer sequences were shown in Table 1.
(§2) qPCR kit manufacturer: Nanjing Vazyme Biotechnology Co., Ltd.; Catalog number: AceQ Universal U+ Probe Master Mix V2; amplification program: step 1: 37 °C for 2 min, and cycle number 1; step 2: 95 °C for 5 min, and cycle number 1; and step 3: 95 °C for 10 s, 60°C for 30 s, and cycle number 45.

Caco-2 cells [2] = experiment: Preventive effects of 2'-FL on glycocalyx damage caused by LPS (qPCR of glycocalyx development genes); assay type: cell-based, human; conditions: for transcriptional level of gpc1: then 100 ng/mL LPS 24 h; for transcriptional level of ext2 / transcriptional level of has2 / transcriptional level of has3 / transcription level of has1 / transcriptional level of ext1: then LPS
Experimental: as §1, §2
2.1 Experiments: Caco-2 cells were adjusted to a density of 1 × 10^5 cells/cm^2 and inoculated in 24-well plates. According to groups, 2'-FL at concentrations of 0.6 mg/mL, 1.2 mg/mL, and 2.4 mg/mL was added to MEM complete medium, respectively. After incubation for 3 days, culture supernatant was removed, and fresh MEM complete medium with a final concentration of 100 ng/mL LPS was added and they are co-incubated for 24 h. Cells with added LPS but without 2'-FL were designated as a model group, and cells without added LPS or 2'-FL were designated as a blank group. Total RNA was extracted from the cells and reverse transcribed. Transcriptional levels of genes related to glycocalyx development, including glypican 1 (gpc1), hyaluronic acid synthases (has1, has2 and has3), and exostosin glycosyltransferases (ext1 and ext2), in the Caco-2 cells were measured by qPCR.

[3] = all three concentrations of 2'-FL (0.6, 1.2, 2.4 mg/mL), 3 days, vs blank control, p < 0.05
[4] = of 0.6, 1.2, 2.4 mg/mL tested, effect decreases with increasing concentration
[5] = summary statement, 0.6mg/mL-1.2 mg/mL
[6] = 2.4 mg/mL 2'-FL, compared to the model group, p < 0.05
[7] = different concentrations of 2'-FL 3 days, compared with the blank group
[8] = prevention group with different concentrations of 2'-FL, vs the blank group, p > 0.05
[9] = summary statement, 0.6mg/mL-2.4 mg/mL

SMILES: C[C@@H]1O[C@@H](O[C@H]2[C@H](O[C@H]3[C@H](O)[C@@H](O)C(O)O[C@@H]3CO)O[C@H](CO)[C@H](O)[C@@H]2O)[C@@H](O)[C@H](O)[C@@H]1O (stereo partly shown) [2'-FL, 2'-fucosyllactose]
- transcriptional level of ext1 mRNA (Caco-2 cells [1]; [3]): significantly upregulate
- transcriptional level of ext2 mRNA (Caco-2 cells [1]; [3]): significantly upregulate
- transcriptional level of gpc1 mRNA (Caco-2 cells [1]; [3]): significantly upregulate
- transcriptional level of has1 mRNA (Caco-2 cells [1]; [3]): significantly upregulate
- transcriptional level of has2 mRNA (Caco-2 cells [1]; [3]): significantly upregulate
- transcriptional level of has3 mRNA (Caco-2 cells [1]; [3]): significantly upregulate
- concentration at which the upregulation effect on the transcriptional level of ext1 reaches a maximum (Caco-2 cells [1]; [4]): 0.6 mg/mL
- concentration at which the upregulation effect on the transcriptional level of ext2 reaches a maximum (Caco-2 cells [1]; [4]): 0.6 mg/mL
- concentration at which the upregulation effect on the transcriptional level of has1 reaches a maximum (Caco-2 cells [1]; [4]): 0.6 mg/mL
- concentration at which the upregulation effect on the transcriptional level of has2 reaches a maximum (Caco-2 cells [1]; [4]): 0.6 mg/mL
- concentration at which the upregulation effect on the transcriptional level of has3 reaches a maximum (Caco-2 cells [1]; [4]): 0.6 mg/mL
- concentration at which the upregulation effect on the transcriptional level of gpc1 reaches a maximum (Caco-2 cells [1]; of 0.6, 1.2, 2.4 mg/mL tested, first increasing and then decreasing): 1.2 mg/mL
- transcriptional level of ext1 (Caco-2 cells [1]; summary statement, 0.6 mg/mL): significantly upregulate
- transcriptional level of ext2 (Caco-2 cells [1]; summary statement, 0.6 mg/mL): significantly upregulate
- transcriptional level of has1 (Caco-2 cells [1]; summary statement, 0.6 mg/mL): significantly upregulate
- transcriptional level of has2 (Caco-2 cells [1]; summary statement, 0.6 mg/mL): significantly upregulate
- transcriptional level of has3 (Caco-2 cells [1]; summary statement, 0.6 mg/mL): significantly upregulate
- transcriptional level of gpc1 (Caco-2 cells [1]; [5]): significantly upregulate
- transcriptional level of gpc1 (Caco-2 cells [2]; 0.6 mg/mL 2'-FL 3 days, compared with the blank group): significantly upregulate
- transcriptional level of gpc1 (Caco-2 cells [2]; 1.2 mg/mL 2'-FL 3 days, compared with the blank group): significantly upregulate
- transcriptional level of ext2 (Caco-2 cells [2]; 1.2 mg/mL 2'-FL, p<0.05): significantly upregulate
- transcriptional level of has2 (Caco-2 cells [2]; [6]): significantly upregulated
- transcriptional level of has3 (Caco-2 cells [2]; [6]): significantly upregulated
- transcription level of has1 (Caco-2 cells [2]; 2.4 mg/mL 2'-FL, compared with the model group): significantly upregulated
- transcriptional level of ext2 (Caco-2 cells [2]; 2.4 mg/mL 2'-FL, p<0.05): significantly upregulate
- transcriptional level of ext1 (Caco-2 cells [2]; [7]): still upregulated
- transcriptional level of ext2 (Caco-2 cells [2]; [7]): still upregulated
- transcriptional level of gpc1 (Caco-2 cells [2]; different concentrations of 2'-FL (0.6, 1.2, 2.4 mg/mL) 3 days, compared with the blank group): still upregulated
- transcriptional level of has2 (Caco-2 cells [2]; [8]): no significant differences
- transcriptional level of has3 (Caco-2 cells [2]; [8]): no significant differences
- transcription level of has1 (Caco-2 cells [2]; prevention groups with different concentrations of 2'-FL (0.6, 1.2, 2.4 mg/mL), compared with the blank group, p < 0.05): significantly downregulated
- downregulation of the transcriptional level of gpc1 caused by LPS (Caco-2 cells [2]; [5]): significantly prevent downregulation
- downregulation of the transcriptional level of ext1 caused by LPS (Caco-2 cells [2]; [9]): significantly prevent downregulation
- downregulation of the transcriptional level of ext2 caused by LPS (Caco-2 cells [2]; [9]): significantly prevent downregulation
- downregulation of the transcriptional level of has2 caused by LPS (Caco-2 cells [2]; [9]): significantly prevent downregulation
- downregulation of the transcriptional level of has3 caused by LPS (Caco-2 cells [2]; [9]): significantly prevent downregulation
- transcriptional level of ext1 (Caco-2 cells [2]; three concentrations of 2'-FL (0.6, 1.2, 2.4 mg/mL), p<0.05): significantly upregulate
